Holding throughout (format): ADME
Series [1] has as its target T1, Cytochrome P450 2C19 (Homo sapiens, UniProt P33261). Nature of the series: Inhibition of CYP2C19 assessed as decrease in catalytic reaction velocity at 100 uM by substrate-inhibition assay.
Series [2] concerns the target T2, Cytochrome P450 2C9 (Homo sapiens, UniProt P11712). Description: Inhibition of CYP2C9 assessed as decrease in catalytic reaction velocity at 200 uM by substrate-inhibition assay.
Series [3] concerns the target T2, Cytochrome P450 2C9. Description: Activity at recombinant CYP2C9 by Michaelis-Menten method. The note with it: recombinant enzyme.
Series [4] concerns the target T1, Cytochrome P450 2C19. Description: Activity at recombinant CYP2C19 by Michaelis-Menten method. The following applies: recombinant enzyme.
The target of series [5] is T1, Cytochrome P450 2C19. Description: Inhibition of CYP2C19.

The text below walks through data of ChEMBL document CHEMBL1153865, “The metabolism of CYP2C9 and CYP2C19 for gliclazide by homology modeling and docking study” (Eur J Med Chem, 2009).

Structures are written as SMILES.

T1 sequence (P33261 whole entry): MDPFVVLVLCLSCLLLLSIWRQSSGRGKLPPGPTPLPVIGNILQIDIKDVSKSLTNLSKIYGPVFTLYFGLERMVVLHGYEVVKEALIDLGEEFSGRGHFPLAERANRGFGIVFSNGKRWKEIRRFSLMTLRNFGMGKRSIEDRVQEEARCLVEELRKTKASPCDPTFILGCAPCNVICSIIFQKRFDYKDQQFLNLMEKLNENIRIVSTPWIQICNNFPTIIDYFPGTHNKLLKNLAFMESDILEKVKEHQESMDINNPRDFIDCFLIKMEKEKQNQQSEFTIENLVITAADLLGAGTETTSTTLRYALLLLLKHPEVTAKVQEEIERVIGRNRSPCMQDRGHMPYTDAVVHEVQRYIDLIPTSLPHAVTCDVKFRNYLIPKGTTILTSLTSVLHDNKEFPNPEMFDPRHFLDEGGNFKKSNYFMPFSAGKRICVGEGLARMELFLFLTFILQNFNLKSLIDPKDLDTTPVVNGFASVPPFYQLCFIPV
T2 sequence (P11712 whole entry): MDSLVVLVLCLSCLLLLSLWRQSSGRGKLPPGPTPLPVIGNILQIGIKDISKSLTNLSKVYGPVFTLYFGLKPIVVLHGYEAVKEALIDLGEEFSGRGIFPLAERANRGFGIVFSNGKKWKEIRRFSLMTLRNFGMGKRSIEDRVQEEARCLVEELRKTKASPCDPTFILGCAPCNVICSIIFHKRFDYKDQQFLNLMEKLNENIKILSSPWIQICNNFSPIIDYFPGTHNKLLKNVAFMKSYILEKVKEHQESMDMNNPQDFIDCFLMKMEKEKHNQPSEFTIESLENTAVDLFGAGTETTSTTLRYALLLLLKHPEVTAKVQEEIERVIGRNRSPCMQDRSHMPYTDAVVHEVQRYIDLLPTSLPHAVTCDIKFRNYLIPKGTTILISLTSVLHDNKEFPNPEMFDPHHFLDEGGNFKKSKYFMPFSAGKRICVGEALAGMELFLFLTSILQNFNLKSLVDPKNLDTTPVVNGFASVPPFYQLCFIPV

Consider `Cc1ccc(S(=O)(=O)NC(=O)NN2CC3CCCC3C2)cc1` (configuration not stated) [GLICLAZIDE], for which the “inhibition (INH)” value at Cytochrome P450 2C19 [1] and on Cytochrome P450 2C9 [2] was “Not Active” in each case.

Take `O=C(NN1C[C@H]2CCC[C@H]2C1)NS(=O)(=O)c1ccc(CO)cc1` [METHYLHYDROXYLGLICLAZIDE]: the maximal velocity (Vmax) on Cytochrome P450 2C9 [3] turned out to be 0.6 pmol/min; on Cytochrome P450 2C19 [4] it was 12.1 pmol/min. At Cytochrome P450 2C19 [5], `CCC1(c2ccccc2)C(=O)NC(=O)N(Cc2ccccc2)C1=O` (configuration not stated) displayed a Ki of 79 µM. Turning to `Cc1ccc(S(=O)(=O)NC(=O)NN2C[C@@H]3CC[C@@H](O)[C@@H]3C2)cc1`, the maximum rate (Vmax) at Cytochrome P450 2C9 [3] was determined as 0.6 pmol/min; at Cytochrome P450 2C19 [4] it was 14.9 pmol/min.

One may read the Vmax as the rate approached at saturating substrate. A word on the Ki: it is the equilibrium dissociation constant of an inhibitor or competing ligand from its target. Read a low Ki as higher affinity.
